# Experimental data: PubChem BioAssay AID1745844 (Carcinogenic Potency Database (CPDB), 2022)
# “And” between values parts separate entries of the source, which are not always exact repeats. Identical values can stand only once. The source made the active and inactive calls. No rule for the calls is given here.
# System: rodent lifetime carcinogenesis bioassay, tumor incidence TD50
# Assay: chronic cancer bioassays in animals – CPDB, compiled studies (AID 1745844)
smiles,measurement,setting,value
CCCCC/C=N/N(C)C=O,TD50,"mouse, strain Swiss, females, by gavage, site: liver, lesion: hepatocellular carcinoma, dosed 52 weeks, study length 122 weeks",180 mg/kg/day
same,TD50,"mouse, strain Swiss, females, by gavage, site: liver, lesion: hepatoma, benign, dosed 52 weeks, study length 122 weeks",23.3 mg/kg/day
same,TD50,"mouse, strain Swiss, females, by gavage, site: liver, lesion: several types, types named in the paper, dosed 52 weeks, study length 122 weeks",19.9 mg/kg/day
same,TD50,"mouse, strain Swiss, females, by gavage, site: lung, lesion: adenocarcinoma, dosed 52 weeks, study length 122 weeks",8.73 mg/kg/day
same,TD50,"mouse, strain Swiss, females, by gavage, site: lung, lesion: adenoma, dosed 52 weeks, study length 122 weeks",4.68 mg/kg/day
same,TD50,"mouse, strain Swiss, females, by gavage, site: lung, lesion: several types, types named in the paper, dosed 52 weeks, study length 122 weeks",2.96 mg/kg/day
same,TD50,"mouse, strain Swiss, males, by gavage, site: liver, lesion: hepatocellular carcinoma, dosed 52 weeks, study length 128 weeks",115 mg/kg/day
same,TD50,"mouse, strain Swiss, males, by gavage, site: liver, lesion: hepatoma, benign, dosed 52 weeks, study length 128 weeks",45.4 mg/kg/day
same,TD50,"mouse, strain Swiss, males, by gavage, site: liver, lesion: several types, types named in the paper, dosed 52 weeks, study length 128 weeks",31.4 mg/kg/day
same,TD50,"mouse, strain Swiss, males, by gavage, site: lung, lesion: adenocarcinoma, dosed 52 weeks, study length 128 weeks",5.52 mg/kg/day
same,TD50,"mouse, strain Swiss, males, by gavage, site: lung, lesion: adenoma, dosed 52 weeks, study length 128 weeks",6.63 mg/kg/day
same,TD50,"mouse, strain Swiss, males, by gavage, site: lung, lesion: several types, types named in the paper, dosed 52 weeks, study length 128 weeks",1.92 mg/kg/day
same,TD50,"mouse, strain Swiss, males, by gavage, site: preputial gland, lesion: several types, types named in the paper, dosed 52 weeks, study length 128 weeks",6.51 mg/kg/day
same,TD50,"mouse, strain Swiss, males, by gavage, site: preputial gland, lesion: squamous-cell carcinoma, dosed 52 weeks, study length 128 weeks",8.03 mg/kg/day
same,TD50,"mouse, strain Swiss, males, by gavage, site: preputial gland, lesion: squamous-cell papilloma, dosed 52 weeks, study length 128 weeks",93.3 mg/kg/day
C[C@]12C=CC(=O)C=C1CC[C@@H]1[C@@H]2[C@@H](O)C[C@@]2(C)[C@H]1CC[C@]2(O)C(=O)CO,TD50,"rat, strain Charles River CD (Sprague-Dawley), males, in drinking water, site: liver, lesion: hepatocellular adenoma, dosed 104 weeks, study length 104 weeks",2.16 mg/kg/day
same,TD50,"rat, strain Charles River CD (Sprague-Dawley), males, in drinking water, site: liver, lesion: hepatocellular carcinoma, dosed 104 weeks, study length 104 weeks",6.58 mg/kg/day
same,TD50,"rat, strain Charles River CD (Sprague-Dawley), males, in drinking water, site: liver, lesion: several types, types named in the paper, dosed 104 weeks, study length 104 weeks",1.53 mg/kg/day
same,TD50,"rat, strain Sprague-Dawley, females, by gavage, site: any site (literature study), lesion: benign tumor, dosed 78 weeks, study length 104 weeks",1.96 mg/kg/day (inactive)
same,carcinogen call,"rat, strain Sprague-Dawley, females, by gavage, site: any site (literature study), lesion: malignant tumor, dosed 78 weeks, study length 104 weeks",negative (inactive)
CC(=O)CN(C)N=O,TD50,"rat, strain MRC, females, by gavage, site: esophagus, lesion: several types, types named in the paper, dosed 67 weeks, study length 76 weeks",0.16 mg/kg/day
same,TD50,"rat, strain MRC, females, by gavage, site: liver, lesion: several types, types named in the paper, dosed 67 weeks, study length 76 weeks",0.268 mg/kg/day
same,TD50,"rat, strain MRC, females, by gavage, site: nasal and paranasal cavity, lesion: several types, types named in the paper, dosed 67 weeks, study length 76 weeks",0.0167 mg/kg/day
same,TD50,"rat, strain MRC, females, by gavage, site: pharynx, lesion: several types, types named in the paper, dosed 67 weeks, study length 76 weeks",0.0758 mg/kg/day
same,TD50,"rat, strain MRC, males, by gavage, site: esophagus, lesion: several types, types named in the paper, dosed 51 weeks, study length 58 weeks",0.0642 mg/kg/day
same,TD50,"rat, strain MRC, males, by gavage, site: liver, lesion: several types, types named in the paper, dosed 51 weeks, study length 58 weeks",0.252 mg/kg/day
same,TD50,"rat, strain MRC, males, by gavage, site: nasal and paranasal cavity, lesion: several types, types named in the paper, dosed 51 weeks, study length 58 weeks",0.0178 mg/kg/day
same,TD50,"rat, strain MRC, males, by gavage, site: nasopharynx, lesion: papilloma, dosed 51 weeks, study length 58 weeks",0.942 mg/kg/day
same,TD50,"rat, strain MRC, males, by gavage, site: pharynx, lesion: several types, types named in the paper, dosed 51 weeks, study length 58 weeks",0.023 mg/kg/day
OB(O)O,carcinogen call,"mouse, strain B6C3F1, females, in feed, site: any site (literature study), lesion: several types, types named in the paper, dosed 103 weeks, study length 105 weeks",negative (inactive)
same,TD50,"mouse, strain B6C3F1, females, in feed, site: liver, lesion: hepatocellular adenoma + hepatocellular carcinoma + neoplastic nodule, dosed 103 weeks, study length 105 weeks",31000 mg/kg/day
same,TD50,"mouse, strain B6C3F1, females, in feed, site: lung, lesion: alveolar/bronchiolar adenoma + alveolar/bronchiolar carcinoma, dosed 103 weeks, study length 105 weeks",4190 mg/kg/day
same,TD50,"mouse, strain B6C3F1, males, in feed, site: any site (literature study), lesion: several types, types named in the paper, dosed 103 weeks, study length 105 weeks",500 mg/kg/day
same,TD50,"mouse, strain B6C3F1, males, in feed, site: liver, lesion: hepatocellular adenoma + hepatocellular carcinoma + neoplastic nodule, dosed 103 weeks, study length 105 weeks",638 mg/kg/day
same,TD50,"mouse, strain B6C3F1, males, in feed, site: liver, lesion: hepatocellular adenoma + hepatocellular carcinoma, dosed 103 weeks, study length 105 weeks",638 mg/kg/day (inactive)
same,TD50,"mouse, strain B6C3F1, males, in feed, site: liver, lesion: hepatocellular carcinoma, dosed 103 weeks, study length 105 weeks",1120 mg/kg/day
same,TD50,"mouse, strain B6C3F1, males, in feed, site: lung, lesion: alveolar/bronchiolar adenoma + alveolar/bronchiolar carcinoma, dosed 103 weeks, study length 105 weeks",38600 mg/kg/day
same,TD50,"mouse, strain B6C3F1, males, in feed, site: subcutaneous tissue, lesion: fibrosarcoma + fibroma + neurofibrosarcoma + sarcoma, NOS, dosed 103 weeks, study length 105 weeks",706 mg/kg/day
same,TD50,"mouse, strain B6C3F1, males, in feed, site: subcutaneous tissue, lesion: fibrosarcoma + neurofibrosarcoma + sarcoma, NOS, dosed 103 weeks, study length 105 weeks",1070 mg/kg/day
NC(=O)C(=Cc1ccc([N+](=O)[O-])o1)c1ccco1,TD50,"hamster, strain Syrian Golden, females, in feed, site: esophagus, lesion: papilloma, dosed 94 weeks, study length 94 weeks",2340 mg/kg/day
same,TD50,"hamster, strain Syrian Golden, females, in feed, site: forestomach, lesion: several types, types named in the paper, dosed 94 weeks, study length 94 weeks",59.1 mg/kg/day
same,TD50,"hamster, strain Syrian Golden, females, in feed, site: forestomach, lesion: squamous-cell carcinoma, dosed 94 weeks, study length 94 weeks",2340 mg/kg/day
same,TD50,"hamster, strain Syrian Golden, males, in feed, site: esophagus, lesion: several types, types named in the paper, dosed 94 weeks, study length 94 weeks",328 mg/kg/day
same,TD50,"hamster, strain Syrian Golden, males, in feed, site: esophagus, lesion: squamous-cell carcinoma, dosed 94 weeks, study length 94 weeks",2180 mg/kg/day
same,TD50,"hamster, strain Syrian Golden, males, in feed, site: forestomach, lesion: several types, types named in the paper, dosed 94 weeks, study length 94 weeks",30.5 mg/kg/day
same,TD50,"hamster, strain Syrian Golden, males, in feed, site: forestomach, lesion: squamous-cell carcinoma, dosed 94 weeks, study length 94 weeks",164 mg/kg/day
same,TD50,"mouse, strain CDF1, females, in feed, site: forestomach, lesion: papilloma, dosed 78 weeks, study length 104 weeks",714 mg/kg/day
same,TD50,"mouse, strain CDF1, females, in feed, site: forestomach, lesion: squamous-cell carcinoma, dosed 78 weeks, study length 104 weeks",2540 mg/kg/day
same,TD50,"mouse, strain CDF1, females, in feed, site: lung, lesion: one or several types, types not named, dosed 78 weeks, study length 104 weeks",16400 mg/kg/day
same,TD50,"mouse, strain CDF1, males, in feed, site: forestomach, lesion: papilloma, dosed 78 weeks, study length 104 weeks",753 mg/kg/day
same,TD50,"mouse, strain CDF1, males, in feed, site: forestomach, lesion: squamous-cell carcinoma, dosed 78 weeks, study length 104 weeks",928 mg/kg/day
same,TD50,"mouse, strain CDF1, males, in feed, site: lung, lesion: one or several types, types not named, dosed 78 weeks, study length 104 weeks",9270 mg/kg/day
same,TD50,"mouse, strain DDY, males, in feed, site: any site (literature study), lesion: several types, types named in the paper, dosed 44 weeks, study length 80 weeks",60.8 mg/kg/day
same,TD50,"mouse, strain DDY, males, in feed, site: forestomach, lesion: several types, types named in the paper, dosed 44 weeks, study length 80 weeks",60.8 mg/kg/day
same,TD50,"mouse, strain DDY, males, in feed, site: forestomach, lesion: squamous-cell carcinoma, dosed 44 weeks, study length 80 weeks",72.9 mg/kg/day
same,TD50,"mouse, strain DDY, males, in feed, site: lung, lesion: adenoma, dosed 44 weeks, study length 80 weeks",299 mg/kg/day
same,TD50,"mouse, strain ICR/Jcl, females, in feed, site: all sites, lesion: leukemia, dosed 62 weeks, study length 62 weeks",1800 mg/kg/day
same,TD50,"mouse, strain ICR/Jcl, females, in feed, site: forestomach, lesion: several types, types named in the paper, dosed 62 weeks, study length 62 weeks",95 mg/kg/day
same,TD50,"mouse, strain ICR/Jcl, females, in feed, site: forestomach, lesion: squamous-cell carcinoma, dosed 62 weeks, study length 62 weeks",225 mg/kg/day
same,TD50,"mouse, strain ICR/Jcl, females, in feed, site: liver, lesion: hepatocellular tumor, dosed 104 weeks, study length 104 weeks",7070 mg/kg/day (inactive)
same,TD50,"mouse, strain ICR/Jcl, males, in feed, site: forestomach, lesion: several types, types named in the paper, dosed 62 weeks, study length 62 weeks",90.3 mg/kg/day
same,TD50,"mouse, strain ICR/Jcl, males, in feed, site: forestomach, lesion: squamous-cell carcinoma, dosed 62 weeks, study length 62 weeks",208 mg/kg/day
same,carcinogen call,"mouse, strain ICR/Jcl, males, in feed, site: liver, lesion: hepatocellular tumor, dosed 104 weeks, study length 104 weeks",negative (inactive)
same,TD50,"rat, strain Sprague-Dawley, females, in feed, site: mammary gland, lesion: adenocarcinoma, dosed 46 weeks, study length 66 weeks",26.4 mg/kg/day
same,TD50,"rat, strain Sprague-Dawley, females, in feed, site: mammary gland, lesion: several types, types named in the paper, dosed 46 weeks, study length 66 weeks",11.4 mg/kg/day
same,TD50,"rat, strain Wistar, females, in feed, site: forestomach, lesion: papilloma, dosed 78 weeks, study length 104 weeks",424 mg/kg/day
same,TD50,"rat, strain Wistar, females, in feed, site: liver, lesion: hemangioendothelial sarcoma, dosed 78 weeks, study length 104 weeks",2000 mg/kg/day
same,TD50,"rat, strain Wistar, females, in feed, site: mammary gland, lesion: several types, types named in the paper, dosed 78 weeks, study length 104 weeks",74.7 mg/kg/day
same,TD50,"rat, strain Wistar, males, in feed, site: forestomach, lesion: papilloma, dosed 78 weeks, study length 104 weeks",409 mg/kg/day
same,TD50,"rat, strain Wistar, males, in feed, site: liver, lesion: hemangioendothelial sarcoma, dosed 78 weeks, study length 104 weeks",1600 mg/kg/day
same,TD50,"rat, strain Wistar, males, in feed, site: mammary gland, lesion: several types, types named in the paper, dosed 78 weeks, study length 104 weeks",1200 mg/kg/day
Cc1cc(O)c2c(c1)C(=O)c1cc(O)cc(O)c1C2=O,TD50,"mouse, strain B6C3F1, females, in feed, site: any site (literature study), lesion: several types, types named in the paper, dosed 104 weeks, study length 104 weeks",548 mg/kg/day (inactive)
same,TD50,"mouse, strain B6C3F1, females, in feed, site: lung, lesion: alveolar/bronchiolar adenoma + alveolar/bronchiolar carcinoma, dosed 104 weeks, study length 104 weeks",65800 mg/kg/day
same,TD50,"mouse, strain B6C3F1, males, in feed, site: kidney, lesion: tubule adenoma + tubule carcinoma, dosed 104 weeks, study length 104 weeks",965 mg/kg/day and 885 mg/kg/day
same,TD50,"rat, strain Fischer 344, females, in feed, site: Zymbal's gland, lesion: carcinoma, dosed 104 weeks, study length 104 weeks",1970 mg/kg/day
same,TD50,"rat, strain Fischer 344, females, in feed, site: any site (literature study), lesion: several types, types named in the paper, dosed 104 weeks, study length 104 weeks",797 mg/kg/day
same,TD50,"rat, strain Fischer 344, females, in feed, site: liver, lesion: hepatocellular adenoma + hepatoblastoma + hepatocellular carcinoma, dosed 104 weeks, study length 104 weeks",4300 mg/kg/day
same,carcinogen call,"rat, strain Fischer 344, males, in feed, site: any site (literature study), lesion: several types, types named in the paper, dosed 104 weeks, study length 104 weeks",negative (inactive)
FC(F)(F)C(Cl)Cl,TD50,"rat, strain Charles River CD (Sprague-Dawley), females, inhaled, site: liver, lesion: cholangiofibroma, dosed 105 weeks, study length 105 weeks",22700 mg/kg/day
same,TD50,"rat, strain Charles River CD (Sprague-Dawley), females, inhaled, site: liver, lesion: hepatocellular adenoma, dosed 105 weeks, study length 105 weeks",20300 mg/kg/day
same,TD50,"rat, strain Charles River CD (Sprague-Dawley), females, inhaled, site: pancreas, lesion: acinar-cell adenoma, dosed 105 weeks, study length 105 weeks",92100 mg/kg/day
same,TD50,"rat, strain Charles River CD (Sprague-Dawley), males, inhaled, site: liver, lesion: hepatocellular adenoma, dosed 105 weeks, study length 105 weeks",13100 mg/kg/day
same,TD50,"rat, strain Charles River CD (Sprague-Dawley), males, inhaled, site: pancreas, lesion: acinar-cell adenoma, dosed 105 weeks, study length 105 weeks",1260 mg/kg/day
same,TD50,"rat, strain Charles River CD (Sprague-Dawley), males, inhaled, site: pancreas, lesion: acinar-cell carcinoma, dosed 105 weeks, study length 105 weeks",60800 mg/kg/day
same,TD50,"rat, strain Charles River CD (Sprague-Dawley), males, inhaled, site: testis, lesion: interstitial-cell adenoma, dosed 105 weeks, study length 105 weeks",9050 mg/kg/day
